The term IC50 denotes the concentration that gives 50% inhibition. Read a low IC50 as inhibition by little substance.

The structures appear in SMILES notation.

This is an account of results in BindingDB's records for doi:10.1016/j.bmcl.2013.05.031 (Second Military Medical University, 2013).

For the experiment, the target named is Acrosin (Homo sapiens, UniProt P10323). Nature of the experiment: Inhibition of human sperm acrosin using BAPNA as substrate after 3 hrs by spectrophotometric analysis.
Sequence of Acrosin (P10323 20-42 limits assumed): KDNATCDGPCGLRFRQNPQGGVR
Sequence of Acrosin (P10323 43-343 limits assumed): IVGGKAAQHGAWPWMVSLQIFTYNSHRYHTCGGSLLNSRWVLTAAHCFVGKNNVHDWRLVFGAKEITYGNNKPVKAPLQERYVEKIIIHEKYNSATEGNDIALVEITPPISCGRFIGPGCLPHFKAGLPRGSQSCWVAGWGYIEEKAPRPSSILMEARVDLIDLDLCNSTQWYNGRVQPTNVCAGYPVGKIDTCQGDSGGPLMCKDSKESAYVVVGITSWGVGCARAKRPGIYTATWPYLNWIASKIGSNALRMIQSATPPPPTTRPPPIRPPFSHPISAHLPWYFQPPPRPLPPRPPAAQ
`O=C(NCCO)c1cc(-c2cccc([N+](=O)[O-])c2)[nH]n1` came in with an IC50 of 0.76 mM. The result for `O=C(NCCOCCO)c1cc(-c2cccc([N+](=O)[O-])c2)n[nH]1` reads 9.1 mM; that for `CC(C)(CO)NC(=O)c1cc(-c2ccc([N+](=O)[O-])cc2)n[nH]1`, 1.87 mM; that for `CC(O)CNC(=O)c1cc(-c2ccc(Br)cc2)n[nH]1` (stereo not drawn), 0.33 mM. To `COc1ccc(-c2cc(C(=O)NCCO)[nH]n2)cc1` belongs 0.09 mM.

On to `O=C(NC(CO)(CO)CO)c1cc(-c2cccc([N+](=O)[O-])c2)[nH]n1`, for which the midpoint of inhibition, the IC50, lay at 0.76 mM. To `CC(O)CN(CC(C)O)C(=O)c1cc(-c2ccccc2)[nH]n1` (stereo not drawn) belongs 0.01 mM; to `CC(O)CN(CC(C)O)C(=O)c1cc(-c2ccc([N+](=O)[O-])cc2)n[nH]1` (stereo not drawn), 1.21 mM; to `CC(O)CNC(=O)c1cc(-c2ccc([N+](=O)[O-])cc2)[nH]n1` (stereo not drawn), 2.95 mM. On to `O=C(NCCCO)c1cc(-c2ccccc2)[nH]n1`, for which the IC50 was 0.54 mM. This IC50 lies about 5.5-fold lower than the previous one. The result for `O=C(c1cc(-c2cccc([N+](=O)[O-])c2)n[nH]1)N(CCO)CCO` reads 2.4 mM; that for `CC(CO)NC(=O)c1cc(-c2ccc(Br)cc2)n[nH]1` (stereo not drawn), 0.88 mM. To `COc1ccc(-c2cc(C(=O)NCCOCCO)[nH]n2)cc1` belongs 6.02 mM; to `O=C(c1cc(-c2ccc([N+](=O)[O-])cc2)n[nH]1)N(CCO)CCO`, 5.6 mM.

`O=C(NC(CO)(CO)CO)c1cc(-c2ccc([N+](=O)[O-])cc2)[nH]n1` had an IC50 of 5.22 mM. The result for `O=C(NCCOCCO)c1cc(-c2ccc(Br)cc2)[nH]n1` reads 10 mM; that for `O=C(c1cc(-c2ccccc2)[nH]n1)N(CCO)CCO`, 1.7 mM; that for `O=C(NC(CO)(CO)CO)c1cc(-c2ccccc2)n[nH]1`, 0.94 mM.

`CC(O)CNC(=O)c1cc(-c2ccccc2)[nH]n1` (stereo not drawn): 0.06 mM corresponded to half-maximal inhibition (IC50). To `O=C(NCCO)c1cc(-c2ccc(Br)cc2)[nH]n1` belongs 0.53 mM; to `CN(CCO)C(=O)c1cc(-c2cccc([N+](=O)[O-])c2)n[nH]1`, 0.79 mM; to `O=Cc1cc(-c2ccc(Cl)cc2Cl)on1`, 0.39 mM. In turn, `CC(O)CNC(=O)c1cc(-c2cccc([N+](=O)[O-])c2)n[nH]1` (stereo not drawn) came in with an IC50 of 1.83 mM. The result for `CN(CCO)C(=O)c1cc(-c2ccc([N+](=O)[O-])cc2)n[nH]1` reads 2 mM; that for `COc1ccc(-c2cc(C(=O)N(C)CCO)n[nH]2)cc1`, 0.41 mM. `O=C(NCCO)c1cc(-c2ccccc2)n[nH]1`: the IC50 was determined as 2.8 mM. Molecule `O=C(NCCCO)c1cc(-c2ccc([N+](=O)[O-])cc2)[nH]n1` had a concentration for half-maximal inhibition (IC50) of 3.07 mM. This IC50 and that of the molecule before are within 1.5-fold of each other. To `O=C(NCCO)c1cc(-c2ccc([N+](=O)[O-])cc2)n[nH]1` belongs 2.7 mM; to `O=C(NCCOCCO)c1cc(-c2ccc([N+](=O)[O-])cc2)n[nH]1`, 2.07 mM; to `O=C(c1cc(-c2ccc(Br)cc2)n[nH]1)N(CCO)CCO`, 1.52 mM.

In the case of `O=C(NCCCO)c1cc(-c2cccc([N+](=O)[O-])c2)[nH]n1`, inhibition was half-maximal at 0.78 mM (IC50). To `O=C(NCCCO)c1cc(-c2ccc(Br)cc2)[nH]n1` belongs 0.38 mM.

Consider `CC(CO)NC(=O)c1cc(-c2ccccc2)[nH]n1` (stereo not drawn), for which the IC50 came out at 3 mM. Against the preceding molecule, the IC50 is about 7.9-fold higher.
